According to patent US20150037351A1, “NOVEL THERAPEUTIC TARGET FOR THE PREVENTION OF TUMOUR METASTASIS” (MAX-PLANCK-GESELLSCHAFT ZUR FORDERUNG DER WISSENSCHAFTEN …, priority 2012, published 2015):

Legend:
P2Y2 receptors [1] = target: T1, P2Y2 receptors (Homo sapiens, UniProt P41231); conditions: cited from earlier work
P2Y2 receptors [2] = target: T1, P2Y2 receptors; conditions: natural ligands of the human P2Y2 receptor; cited from earlier work
[3] = tested on: MS1 endothelial cell layer; assay: endothelial barrier permeability assay (FITC-dextran); assay type: cell-based, mouse
Description: (§1) The permeability assay was performed as described for the transwell assay with some modifications. Briefly, MS1 cells were cultured on transwell filters and the supernatant of platelets alone or platelets stimulated with tumour cells was mixed 1:1 with TB containing 2 mg/ml 70 kDa FITC-DX of which 50 μl were added to the upper compartment in the absence or presence of apyrase (20 U/ml). 250 μl TB were added to the lower compartment. After 90 min, the amount of passed FITC-DX to the lower compartment was measured (FlexStation3, Molecular Devices). For visualization of changes in the endothelial barrier, MS1 cells were stimulated for 1 h with supernatants from tumour cells alone or from tumour cells after stimulation with platelets in the absence or presence of apyrase (20 U/ml). Cells were further processed for staining and imaging

MS1 endothelial cells = assay: morphology of the endothelial monolayer (VE-cadherin/F-actin staining, discontinuous cellular junctions); assay type: cell-based, mouse
Description: as §1
Cells or tissues were fixed with 4% para-formaldehyde. Tissues were further cryopreserved in 30% sucrose (Sigma), embedded in OCT (Fisher Scientific), and cryosectioned at 16 μm. Cells or sections were stained with rat anti-VE-Cadherin (BD Pharmingen) and Alexa Fluor (AF) 594- (Molecular Probes) or Cy5- (Dianova) conjugated secondary antibodies. DAPI (Sigma) was used to stain cell nuclei, and AF488-conjugated phalloidin (Molecular Probes) to stain F-actin. Images were acquired using a Leica SP5 confocal microscope and analyzed using ImageJ (NIH).

B16 cells = assay: transwell assay: tumour cell transmigration through an endothelial cell layer; assay type: cell-based, mouse
Description: MS1 cells (8×10^3 at seeding in 50 μl) or HUVEC (6×10^3 at seeding in 50 μl) were cultured for 2 days on 96-transwell plates with polyester membranes of 8-μm pore size (Corning) with medium changes every day. For knockdown experiments, 4×10^5 MS1 cells were transfected using Amaxa Nucleofector Kit V with different sets of siRNA against the P2Y2 receptor (Qiagen) and 1.2×10^4 cells in 50 μl were seeded to the up-per compartment. Where indicated, MS1 cells were pre-incubated with 5-BDBD (1 μM) or MRS2500 (100 nM) for 30 min. Before the experiment, exemplary wells of each condition were visually checked by calcein-AM staining of the endothelial monolayer and only plates with 100% confluency were used. For transmigration, the medium from the upper compartment was removed and 50 μl of a 1:1 mixture of platelets (2×10^8/ml) with calcein-AM-labeled tumour cells (8×10^5/ml) in TB was added to the upper compartment alone or with flurbiprofen (100 nM), ketanserin (3 nM) or apyrase (20 […] (10 μM) and 2MeSADP (10 μM) were added in the absence of platelets. For supernatant experiments, human platelets (5×10^7/ml) or mouse platelets (2×10^8/ml) were incubated for 30 min at 37° C. alone or with tumour cells (1.6×10^6/ml) and centrifuged at 350×g for 10 min. The supernatant was mixed 1:1 with TB (for MS1 cells) or cell culture medium (for HUVECs) containing calcein-AM-labeled tumour cells (8×10^5/ml) and 50 μl were added to the upper compartment. In all experiments, 250 μl TB or culture medium were added to the lower compartment, and tumour cells were allowed to transmigrate over night. On the next day, the non-transmigrated tumour cells from the upper compartment were removed and only the transmigrated tumour cells on the lower side of the filter or the bottom of the transwell were imaged (Zeiss Axio Observer.Z1 and Olympus IX81) and quantified with ImageJ (NIH). Each experiment was performed at least 3 times with a minimum of 5 wells per experiment.

[4] = B16 cells on MS1 endothelial cells with platelets, flurbiprofen 100 nM, ketanserin 3 nM, apyrase 20 U/ml

T1 sequence (P41231 whole entry): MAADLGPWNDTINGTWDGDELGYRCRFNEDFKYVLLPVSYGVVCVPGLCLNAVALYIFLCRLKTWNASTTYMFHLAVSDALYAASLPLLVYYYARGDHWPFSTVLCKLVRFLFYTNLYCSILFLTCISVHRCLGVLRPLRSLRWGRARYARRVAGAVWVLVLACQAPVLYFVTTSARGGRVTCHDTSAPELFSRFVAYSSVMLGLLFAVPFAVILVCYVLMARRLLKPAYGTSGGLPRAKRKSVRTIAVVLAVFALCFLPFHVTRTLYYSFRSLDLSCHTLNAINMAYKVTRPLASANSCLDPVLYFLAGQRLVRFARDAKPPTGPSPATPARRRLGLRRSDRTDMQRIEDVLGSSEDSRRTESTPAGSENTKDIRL

Molecule: Nc1ncnc2c1ncn2[C@@H]1O[C@H](COP(=O)(O)OP(=O)(O)O)[C@@H](O)[C@H]1O [ADP]
- agonist efficacy at P2Y2 receptors in comparison to ATP (P2Y2 receptors [1]): less effective agonist
- EC50 (P2Y2 receptors [2]): considerably lower potency

Molecule: Nc1ncnc2c1ncn2[C@@H]1O[C@H](COP(=O)(O)OP(=O)(O)OP(=O)(O)O)[C@@H](O)[C@H]1O [ATP]
- endothelial permeability ([3]; ATP 10 μM, MS1 monolayer, FITC-dextran): increase
- tight interendothelial junctions (MS1 endothelial cells; ATP 10 μM, 30 min, MS1 cells): loss

Molecule: O=c1ccn([C@@H]2O[C@H](COP(=O)(O)OP(=O)(O)OP(=O)(O)O)[C@@H](O)[C@H]2O)c(=O)[nH]1 [UTP]
- agonist efficacy at P2Y2 receptors in comparison to ATP (P2Y2 receptors [1]): full agonist

Molecule: CC(C(=O)O)c1ccc(-c2ccccc2)c(F)c1 (stereo not shown) [flurbiprofen]
- platelet-dependent facilitation of tumour cell transmigration (B16 cells; 0.1 µM): no effect

Molecule: O=C(c1ccc(F)cc1)C1CCN(CCn2c(=O)[nH]c3ccccc3c2=O)CC1 [ketanserin]
- platelet-dependent facilitation of tumour cell transmigration (B16 cells; [4]): no effect

Molecule: apyrase
- diffusion of FITC-labeled dextran over an endothelial cell layer enhanced by platelets with tumour cells ([3]; apyrase 20 U/ml, 90 min): blocked
- loss of tight interactions of endothelial cells in the monolayer induced by platelets with tumour cells (MS1 endothelial cells; apyrase 20 U/ml, 1 h): blocked
- platelet-dependent facilitation of tumour cell transmigration (B16 cells; [4]): ablated
